Data reported in patent US20140357655A1, “SPIROINDOLINE DERIVATIVES AS GONADOTROPIN- RELEASING HORMONE RECEPTOR ANTAGONISTS” (Bayer Intellectual Property GmbH, priority 2012, published 2014).
pIC50: −log10 of the molar value.

Biological target: T1, human GnRH receptor (Homo sapiens, UniProt P30968)
T1 sequence (P30968 1-328): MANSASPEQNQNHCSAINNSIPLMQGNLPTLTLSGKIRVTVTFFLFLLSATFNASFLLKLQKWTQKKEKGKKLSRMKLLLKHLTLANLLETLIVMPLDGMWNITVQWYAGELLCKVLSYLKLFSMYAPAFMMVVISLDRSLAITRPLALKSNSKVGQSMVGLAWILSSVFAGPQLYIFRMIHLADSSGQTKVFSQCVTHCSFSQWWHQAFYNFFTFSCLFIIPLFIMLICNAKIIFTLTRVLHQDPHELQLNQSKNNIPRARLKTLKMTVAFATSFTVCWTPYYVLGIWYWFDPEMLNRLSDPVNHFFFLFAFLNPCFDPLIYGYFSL
Experiment: IP-One HTRF assay with buserelin (at EC80) stimulation
Format: cell-based
Details: CHO cells stably expressing human GnRH receptor, read-out: Potency in IP-One HTRF assay, given as IC50
From the text: 2.3. IP-One HTRF® Assay By using homogenous time-resolved fluorescence resonance energy transfer (HTRF), the generation of one component of the GnRH—R signalling cascade can be measured. After stimulation of CHO cells stably expressing human GnRH receptor (established by Prof. Thomas Gudermann, currently University of Marburg, Germany; supplied as frozen cell aliquots by Cell Culture Services, Hamburg, Germany) with the EC80 of the GnRH agonist buserelin, Gq protein-coupled receptor signalling cascade is activated resulting in PLC-dependent cleavage of PIP2 to Inositol-1,4,5-triphosphate (IP3) and Diacylglycerol. The second messenger IP3 is degraded intracellularly to myo-inositol. Inhibition of the final degradation step from Inositol-1-phosphate (IP1) to myo-inositol by addition of lithium chloride leads to accumulation of IP1 in the cells. In cell lysates, IP1 can be detected via an antibody-based HTRF detection technology, where IP1 can displace the FRET acceptor IP1-d2 from binding by Terbium-labelled anti-IP1 antibody as donor resulting in a signal decrease. Compounds were tested for their capability of inhibiting GnRH—R activation by buserelin. For all IP-One HTRF® assays reagents of Cisbio Bioassays (IP-One Tb Jumbo kit, #62IPAPEJ; Cisbio Bioassays, Bagnols sur Cèze Cedex, France) were used.
For the assay, frozen cell aliquots were thawed and a cell suspension (3.33×10^6 cells/mL) containing IP1-d2 (dilution 1:40) was prepared and incubated at 37° C. After 1 h 3 μl of the cell suspension were added to 50 nl of a 100-fold concentrated solution of the test compound in DMSO pre-dispensed in a well of a white low-volume 384-well microtiter plate (Greiner Bio-One, Frickenhausen, Germany). […] Plates were incubated for 1 h at 37° C. and 5% carbon dioxide before the cells were lysed by adding 3 μl Terbium-labelled anti-IP1 antibody (1:40) diluted in Conjugate & Lysis buffer as supplied with the kit. After an incubation for 1 h at 22° C. to enable complete cell lysis and antibody binding to free IP1 or IP1-d2, plates were measured in an HTRF reader, e.g. a RUBYstar, PHERAstar (both BMG Labtechnologies, Offenburg, Germany) or a Viewlux (PerkinElmer LAS, Rodgau-Jügesheim, Germany).
From the fluorescence emissions at 665 nm (FRET) and at 620 nm (background signal of Terbium-antibody), the ratio (emission at 665 nm divided by emission at 620 nm) was calculated and the data were normalized (reaction without test compound=0% inhibition; all other assay components except agonist=100% inhibition). On the same microtiter plate, compounds were tested at 10 different concentrations in the range of 20 μM to 1 nM (20 μM, 6.7 μM, 2.2 μM, 0.74 μM, 0.25 μM, 82 nM, 27 nM, 9.2 nM, 3.1 nM and 1 nM; dilution series prepared before the assay at the level of the 100-fold conc. stock solutions by serial 1:3 dilutions in 100% DMSO) in duplicate values for each concentration. By using an in-house software, the IC50 values were calculated by a 4 parameter fit.

Row | Structure (SMILES) | pIC50
1 | COC(=O)c1cccc(S(=O)(=O)N2c3ccc(C(=O)NCc4ccccc4Cl)cc3C3(CCS(=O)(=O)CC3)C2C2CC2)c1 (single isomer, unassigned) [Example 60.1, methyl 3-({5-[(2-chlorobenzyl)carbamoyl]-2-cyclopropyl-1′,1′-dioxido-2′,3′,5′,6′-tetrahydrospiro[indole-3,4′-thiopyran]-1(2H)-yl}sulfonyl)benzoate] | 7.26
2 | COC(=O)c1cccc(NC(=O)c2ccc3c(c2)C2(CCS(=O)(=O)CC2)C(C2CC2)N3S(=O)(=O)c2cccc(OC(F)F)c2)c1 (single isomer, unassigned) [Example 89.2, methyl 3-{[(2-cyclopropyl-1-{[3-(difluoromethoxy)phenyl]sulfonyl}-1′,1′-dioxido-1,2,2′,3′,5′,6′-hexahydrospiro[indole-3,4′-thiopyran]-5-yl)carbonyl]amino}benzoate] | < 4.70
3 | CS(=O)(=O)c1cccc(NC(=O)c2ccc3c(c2)C2(CCS(=O)(=O)CC2)C(C2CC2)N3S(=O)(=O)c2ccc(F)cc2)c1 (stereo not drawn) [Example 23, 2-cyclopropyl-1-[(4-fluorophenyl)sulfonyl]-N-(3-mesylphenyl)-1,2,2′,3′,5′,6′-hexahydrospiro[indole-3,4′-thiopyran]-5-carboxamide 1′,1′-dioxide] | 6.48
4 | C=CCC1N(S(=O)(=O)c2cccc(C(=O)OC)c2)c2ccc(C(=O)NCc3ccccc3Cl)cc2C12CCS(=O)(=O)CC2 (stereo not drawn) [Example 54, methyl 3-({5-[N-(2-chlorobenzyl)carbamoyl]-1′,1′-dioxido-2-(prop-2-en-1-yl)-1,2,2′,3′,5′,6′-hexahydrospiro[indole-3,4′-thiopyran]-1-yl}sulfonyl)benzoate] | 7.04
5 | COC(=O)c1cccc(NC(=O)c2ccc3c(c2)C2(CCS(=O)(=O)CC2)C(C2CC2)N3S(=O)(=O)c2ccc(F)cc2)c1 (stereo not drawn) [Example 34, methyl 3-[({2-cyclopropyl-1-[(4-fluorophenyl)sulfonyl]-1′,1′-dioxido-1,2,2′,3′,5′,6′-hexahydrospiro[indole-3,4′-thiopyran]-5-yl}carbonyl)amino]benzoate] | 7.18
6 | COc1cccc(S(=O)(=O)N2c3ccc(C(=O)NCc4ccccc4C(F)(F)F)cc3C3(CCS(=O)(=O)CC3)C2C2CC2)c1 (single isomer, unassigned) [Example 40.1, 2-cyclopropyl-1-[(3-methoxyphenyl)sulfonyl]-N-[2-(trifluoromethyl)benzyl]-1,2,2′,3′,5′,6′-hexahydrospiro[indole-3,4′-thiopyran]-5-carboxamide 1′,1′-dioxide] | 7.72
7 | O=C(NCc1ncc(F)cc1Cl)c1ccc2c(c1)C1(CCS(=O)(=O)CC1)C(C1CC1)N2S(=O)(=O)c1ccc(F)cc1 (single isomer, unassigned) [Example 17.2, N-[(3-chloro-5-fluoropyridin-2-yl)methyl]-2-cyclopropyl-1-[(4-fluorophenyl)sulfonyl]-1,2,2′,3′,5′,6′-hexahydrospiro[indole-3,4′-thiopyran]-5-carboxamide 1′,1′-dioxide] | 5.61
8 | O=C(NCc1ncccc1Cl)c1ccc2c(c1)C1(CCS(=O)(=O)CC1)C(C1CC1)N2S(=O)(=O)c1ccc(F)cc1 (racemic) [Example 14, N-[(3-Chloropyridin-2-yl)methyl]-2-cyclopropyl-1-[(4-fluorophenyl)sulfonyl]-1,2,2′,3′,5′,6′-hexahydrospiro[indole-3,4′-thiopyran]-5-carboxamide 1′,1′-dioxide] | 6.61
9 | O=C(NCC1CCCC1)c1ccc2c(c1)C1(CCS(=O)(=O)CC1)C(C1CC1)N2S(=O)(=O)c1ccc(F)cc1 (single isomer, unassigned) [Example 38.2, N-(cyclopentylmethyl)-2-cyclopropyl-1-[(4-fluorophenyl)sulfonyl]-1,2,2′,3′,5′,6′-hexahydrospiro[indole-3,4′-thiopyran]-5-carboxamide 1′,1′-dioxide] | 5.16
10 | CC1N(S(=O)(=O)c2ccc(F)cc2)c2ccc(C(=O)NCc3ncccc3C(F)(F)F)cc2C12CCOCC2 (single isomer, unassigned) [Example 3.1, 1-[(4-fluorophenyl)sulfonyl]-2-methyl-N-{[3-(trifluoromethyl)pyridin-2-yl]methyl}-1,2,2′,3′,5′,6′-hexahydrospiro[indole-3,4′-pyran]-5-carboxamide] | 6.65
11 | O=C(NCc1ccc(C(F)(F)F)cn1)c1ccc2c(c1)C1(CCS(=O)(=O)CC1)C(C1CC1)N2S(=O)(=O)c1ccc(F)cc1 (stereo not drawn) [Example 65, 2-cyclopropyl-1-[(4-fluorophenyl)sulfonyl]-N-{[5-(trifluoromethyl)pyridin-2-yl]methyl}-1,2,2′,3′,5′,6′-hexahydrospiro[indole-3,4′-thiopyran]-5-carboxamide 1′,1′-dioxide] | 6.32
12 | CC(C)(NC(=O)c1ccc2c(c1)C1(CCS(=O)(=O)CC1)C(C1CC1)N2S(=O)(=O)c1ccc(F)cc1)c1ccc(F)cc1Cl (stereo not drawn) [Example 19, N-(2-chloro-4-fluoro-α,α-dimethylbenzyl)-2-cyclopropyl-1-[(4-fluorophenyl)sulfonyl]-1,2,2′,3′,5′,6′-hexahydrospiro[indole-3,4′-thiopyran]-5-carboxamide 1′,1′-dioxide] | 5.38
13 | N#Cc1ccc(S(=O)(=O)N2c3ccc(C(=O)Nc4cncc(Cl)c4)cc3C3(CCS(=O)(=O)CC3)C2C2CC2)cc1 (stereo not drawn) [Example 71, N-(5-chloropyridin-3-yl)-1-[(4-cyanophenyl)sulfonyl]-2-cyclopropyl-1,2,2′,3′,5′,6′-hexahydrospiro[indole-3,4′-thiopyran]-5-carboxamide 1′,1′-dioxide] | 7.28
14 | COC(=O)c1cccc(NC(=O)c2ccc3c(c2)C2(CCS(=O)(=O)CC2)C(C2CC2)N3S(=O)(=O)c2cccc(OC)c2)c1 (stereo not drawn) [Example 48, methyl 3-[({2-cyclopropyl-1-[(3-methoxyphenyl)sulfonyl]-1′,1′-dioxido-1,2,2′,3′,5′,6′-hexahydrospiro[indole-3,4′-thiopyran]-5-yl}carbonyl)amino]benzoate] | 7.26
15 | COc1cccc(S(=O)(=O)N2c3ccc(C(=O)NCc4ncccc4Cl)cc3C3(CCS(=O)(=O)CC3)C2C2CC2)c1 (single isomer, unassigned) [Example 41.1, N-[(3-chloropyridin-2-yl)methyl]-2-cyclopropyl-1-[(3-methoxyphenyl)sulfonyl]-1,2,2′,3′,5′,6′-hexahydrospiro[indole-3,4′-thiopyran]-5-carboxamide 1′,1′-dioxide] | 6.99
16 | O=C(NCc1ccccc1Cl)c1ccc2c(c1)C1(CCS(=O)(=O)CC1)C(C1CC1)N2S(=O)(=O)c1ccc(F)cc1 (single isomer, unassigned) [Example 18.2, N-(2-chlorobenzyl)-2-cyclopropyl-1-[(4-fluorophenyl)sulfonyl]-1,2,2′,3′,5′,6′-hexahydrospiro[indole-3,4′-thiopyran]-5-carboxamide 1′,1′-dioxide] | 5.28
17 | CN(C)S(=O)(=O)c1cccc(NC(=O)c2ccc3c(c2)C2(CCS(=O)(=O)CC2)C(C2CC2)N3S(=O)(=O)c2ccc(F)cc2)c1 (stereo not drawn) [Example 37, 2-cyclopropyl-N-[3-(N,N-dimethylsulfamoyl)phenyl]-1-[(4-fluorophenyl)sulfonyl]-1,2,2′,3′,5′,6′-hexahydrospiro[indole-3,4′-thiopyran]-5-carboxamide 1′,1′-dioxide] | 7.11
18 | O=C(NCc1ccccc1Cl)c1ccc2c(c1)C1(CC[S+]([O-])CC1)C(C1CC1)N2S(=O)(=O)c1ccc(F)cc1 (stereo not drawn) [Example 13, N-(2-Chlorobenzyl)-2-cyclopropyl-1-[(4-fluorophenyl)sulfonyl]-1,2,2′,3′,5′,6′-hexahydrospiro[indole-3,4′-thiopyran]-5-carboxamide 1′-oxide] | 7.52
